The Ki is a measure of affinity in units of concentration, obtained from inhibition or displacement.

T1 sequence (P51685 whole entry): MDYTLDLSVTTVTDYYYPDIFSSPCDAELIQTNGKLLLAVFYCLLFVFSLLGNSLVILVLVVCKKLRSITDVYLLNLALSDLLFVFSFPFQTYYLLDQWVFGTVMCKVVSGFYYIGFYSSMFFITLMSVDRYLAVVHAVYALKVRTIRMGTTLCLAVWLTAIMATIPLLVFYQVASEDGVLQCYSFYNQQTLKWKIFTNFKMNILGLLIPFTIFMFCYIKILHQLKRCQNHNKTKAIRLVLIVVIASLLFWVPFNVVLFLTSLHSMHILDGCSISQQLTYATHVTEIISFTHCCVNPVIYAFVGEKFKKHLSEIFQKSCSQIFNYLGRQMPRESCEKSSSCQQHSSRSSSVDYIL

One experiment has as its target T1, cloned human CCR8 receptor stably expressed in L1.2 cells (Homo sapiens, UniProt P51685).
T1 construct: expressed in transfected cells
Put plainly: whole cell binding screen: inhibition of biotinylated human I309 binding to CCR8 (FMAT 8100 HTS). As to conditions: Ki of compounds to inhibit I-309 binding to CCR8, L1.2/hCCR8 cells, biotinylated human I-309, 10 point concentration response starting at 10 μM. In a few lines: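 Ten-point dilutions, top 10 μM final, were tested for displacing biotin-I309 from hCCR8-transfected L1.2 cells in HEPES-buffered HBSS with BSA and sodium azide, mixing 0.5 h before FMAT 8100 detection. Signals converted to percent inhibition against untreated wells and a 100 nM excess unlabeled I309 control.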
`Cc1ccccc1C(=O)Nc1ccc(S(=O)(=O)NC2CCN(C(=O)N(C)C)CC2)c2ccccc12` [Compound C-47, 4-[4-(2-Methyl-benzoylamino)-naphthalene-1-sulfonylamino]-piperidine-1-carboxylic acid dimethylamide] came in with a Ki below 500 nM.

Staying with this experiment, now noted: L1.2/hCCR8 cells, biotinylated human I-309, 10 point concentration response starting at 10 μM; read-out: Ki of compounds to inhibit I-309 binding to CCR8.
On to `CCOC(=O)N1C[C@H](C)C(NS(=O)(=O)c2ccc(NC(=O)c3ccccc3C)c3ccccc23)[C@@H](C)C1` (racemic) [Compound C-67, (±)-(cistrans)-3,5-Dimethyl-4-[4-(2-methyl-benzoylamino)-naphthalene-1-sulfonylamino]-piperidine-1-carboxylic acid ethyl ester], for which the Ki is below 500 nM.

As to `O=C(NCc1ccc(S(=O)(=O)NC2CCCCC2)c2ccccc12)c1ccco1` [Compound G-6, Furan-2-carboxylic acid (4-cyclohexylsulfamoyl-naphthalen-1-ylmethyl)-amide], the Ki is below 1000 nM.

With `CCOC(=O)N1CCC(NS(=O)(=O)c2ccc(NC(=O)c3ccccc3)c3c2CCCC3)CC1` [Compound E-4, 4-(4-Benzoylamino-5,6,7,8-tetrahydro-naphthalene-1-sulfonylamino)-piperidine-1-carboxylic acid ethyl ester], the Ki was below 1000 nM.

For the molecule `CCOC(=O)[C@@H]1CNCC[C@@H]1NS(=O)(=O)c1ccc(NC(=O)c2ccccc2C)c2ccccc12` [Compound J-55], the Ki is below 5000 nM.

For the molecule `Cc1ccccc1C(=O)Nc1ccc(S(=O)(=O)NCC2CCCCC2)c2c1CCCC2` [Compound E-27, N-[4-(Cyclohexylmethyl-sulfamoyl)-5,6,7,8-tetrahydro-naphthalen-1-yl]-2-methyl-benzamide], the Ki was below 500 nM.

As to `CCCC(=O)N1CCC(NS(=O)(=O)c2cccc3c(C(=O)NC4CCCCC4C)cccc23)CC1` (racemic) [Compound H-29, (±)-5-(1-Butyryl-piperidin-4-ylsulfamoyl)-naphthalene-1-carboxylic acid (2-methyl-cyclohexyl)-amide], the Ki is below 500 nM.

Regarding `CCOC(=O)c1ccc(NS(=O)(=O)c2cccc3c(NC(=O)c4ccccc4C)cccc23)cc1` [Compound H-19, 4-[5-(2-Methyl-benzoylamino)-naphthalene-1-sulfonylamino]-benzoic acid ethyl ester], the inhibition constant Ki was below 30000 nM.

`CNC(=O)N1CCC(NS(=O)(=O)c2ccc(NC(=O)c3ccccc3C)c3c2CCCC3)CC1` [Compound E-22, 4-[4-(2-Methyl-benzoylamino)-5,6,7,8-tetrahydro-naphthalene-1-sulfonylamino]-piperidine-1-carboxylic acid methylamide]: the inhibition constant (Ki) was below 500 nM.

Turning to `CCCC(=O)N1CC[C@H](NS(=O)(=O)c2ccc(N)c3ccccc23)[C@H](C)C1` (racemic) [Compound D-1, (±)-(cis)-4-amino-naphthalene-1-sulfonic acid (1-butyryl-3-methyl-piperidin-4-yl)-amide], the inhibitory constant (Ki) is below 30000 nM.

For the molecule `Cc1ccccc1C(=O)Nc1ccc(S(=O)(=O)N[C@H]2CCN(C(=O)N(C)C)C[C@H]2C)c2c1CCCC2` (racemic) [Compound E-20, (±)-cis-3-Methyl-4-[4-(2-methyl-benzoylamino)-5,6,7,8-tetrahydro-naphthalene-1-sulfonylamino]-piperidine-1-carboxylic acid dimethylamide], the inhibitory constant (Ki) is below 500 nM.

On to `COc1ccc(NS(=O)(=O)c2ccc(NC(=O)c3ccc([N+](=O)[O-])cc3)c3ccccc23)cc1` [Compound B-3, N-[4-(4-Methoxy-phenylsulfamoyl)-naphthalen-1-yl]-4-nitro-benzamide], for which the Ki was below 30000 nM.

Take `Cc1ccccc1C(=O)Nc1ccc(S(=O)(=O)NC2CCN(S(=O)(=O)c3ccccc3)CC2)c2ccccc12` [Compound C-58, N-[4-(1-Benzenesulfonyl-piperidin-4-ylsulfamoyl)-naphthalen-1-yl]-2-methyl-benzamide]: the Ki was below 500 nM.

With `Cc1ccccc1NC(=O)c1ccc(S(=O)(=O)NC2CCN(C(=O)N(C)C)CC2)c2ccccc12` [Compound F-12, 4-(4-o-Tolylcarbamoyl-naphthalene-1-sulfonylamino)-piperidine-1-carboxylic acid dimethylamide], the Ki was below 500 nM.

On to `CCNC(=O)N1CCC(NS(=O)(=O)c2ccc(NC(=O)c3ccccc3F)c3ccccc23)CC1` [Compound C-100, 4-[4-(2-Fluoro-benzoylamino)-naphthalene-1-sulfonylamino]-piperidine-1-carboxylic acid ethylamide], for which the Ki was below 500 nM.

With `CCNC(=O)N1CCC(NS(=O)(=O)c2ccc(N3C(=O)c4ccccc4C3=O)c3ccccc23)CC1` [Compound C-98, 4-[4-(1,3-Dioxo-1,3-dihydro-isoindol-2-yl)-naphthalene-1-sulfonylamino]-piperidine-1-carboxylic acid ethylamide], the Ki is below 1000 nM.

For the molecule `CC(C)(C)OC(=O)N1CCC(NS(=O)(=O)c2ccc(NC(=O)C3CCCC3)c3ccccc23)CC1` [Compound B-16, 4-[4-(Cyclopentanecarbonyl-amino)-naphthalene-1-sulfonylamino]-piperidine-1-carboxylic acid tert-butyl ester], the Ki is below 1000 nM.

Take `CCCS(=O)(=O)N1CCC(NS(=O)(=O)c2ccc(NC(=O)c3ccccc3C)c3ccccc23)CC1` [Compound C-59, 2-Methyl-N-{4-[1-(propane-1-sulfonyl)-piperidin-4-ylsulfamoyl]-naphthalen-1-yl}-benzamide]: the Ki is below 500 nM.

As to `CCOC(=O)C1CN(C(=O)CN(C)C)CCC1NS(=O)(=O)c1ccc(NC(=O)c2ccccc2C)c2ccccc12` (stereo not shown) [Compound C-83, 1-(2-Dimethylainino-acetyl)-4-[4-(2-methyl-benzoylamino)-naphthalene-1-sulfonylamino]-piperidine-3-carboxylic acid ethyl ester], the Ki is below 30000 nM.

Consider `Cc1ccccc1C(=O)Nc1ccc(S(=O)(=O)N[C@@H]2CCNC[C@H]2C)c2ccccc12` [Compound J-54], for which the Ki was below 5000 nM.

On to `COc1ccc(NS(=O)(=O)c2ccc(NC(=O)Cc3ccccc3)c3ccccc23)cc1` [Compound B-7, N-[4-(4-Methoxy-phenylsulfamoyl)-naphthalen-1-yl]-2-phenyl-acetamide], for which the Ki was below 500 nM.

As to `O=C(Nc1ccc(S(=O)(=O)NC2CCN(C(=O)C3CCCC3)CC2)c2ccccc12)c1ccccc1` [Compound C-5, N-[4-(1-Cyclopentanecarbonyl-piperidin-4-ylsulfamoyl)-naphthalen-1-yl]-benzamide], the inhibition constant Ki is below 500 nM.

Consider `Cc1ccccc1C(=O)Nc1ccc(S(=O)(=O)NC2[C@@H](C)CNC[C@@H]2C)c2ccccc12` (racemic) [Compound C-64, (±)-(cistrans)-N-[4-(3,5-Dimethyl-piperidin-4-ylsulfamoyl)-naphthalen-1-yl]-2-methyl-benzamide], for which the Ki was below 500 nM.

For `Cc1ccccc1C(=O)Nc1ccc(S(=O)(=O)N[C@H]2CCN(C(=O)[C@H]3CCCN3)C[C@H]2C)c2ccccc12` [Compound J-7, (3R, 4S)-2-Methyl-N-{4-[3-methyl-1-((R)pyrrolidine-2-carbonyl)-piperidin-4-ylsuffamoyl]-naphthalen-1-yl}-benzamide], the Ki is below 500 nM.

As for `CCOC(=O)N1CCC(NS(=O)(=O)c2ccc(CN(CC)C3CCCCC3)c3ccccc23)CC1` [Compound G-20, 4-{4-[(Cyclohexyl-ethyl-amino)-methyl]-naphthalene-1-sulfonylamino}-piperidine-1-carboxylic acid ethyl ester], the inhibitory constant (Ki) is below 500 nM.

The values above are taken from patent US7491827B2, “Aryl sulfonamides useful as inhibitors of chemokine receptor activity” (Millennium Pharmaceuticals, Inc., priority 2003, dated 2009).
